The conditions of this series: 101.33 kPa, Liquid; for speed of sound: Light diffraction method; for thermal diffusivity: Optical interferometry.

One may read the speed of sound as the propagation velocity of pressure waves in the medium.

± gives the expanded uncertainty stated by the source.

For `CCCCCCCCn1cc[n+](C)c1.O=S(=O)([N-]S(=O)(=O)C(F)(F)F)C(F)(F)F`, where the note is “293.15 K”, the speed of sound came to 1232 ± 11 m/s and the thermal diffusivity stood at 6.1e-08 ± 5e-09 m2/s.

Consider `CCCCn1cc[n+](C)c1.F[B-](F)(F)F` [1-butyl-3-methylimidazolium tetrafluoroborate], for which, under “293.15 K”, the speed of sound turned out to be 1564 ± 10 m/s and the thermal diffusivity stood at 8.6e-08 ± 4e-09 m2/s.

As to `CCCCn1cc[n+](C)c1.F[P-](F)(F)(F)(F)F` [1-butyl-3-methylimidazolium hexafluorophosphate], under “293.15 K”, the speed of sound came out at 1441 ± 11 m/s and the thermal diffusivity stood at 7.5e-08 ± 5e-09 m2/s.

As for `CCn1cc[n+](C)c1.O=S(=O)([N-]S(=O)(=O)C(F)(F)F)C(F)(F)F`, for the setting “293.15 K”, the speed of sound was found to be 1240 ± 10 m/s and the thermal diffusivity was 6.01e-08 ± 2.9e-09 m2/s.

`CCCCCC[n+]1ccn(C)c1.O=S(=O)([N-]S(=O)(=O)C(F)(F)F)C(F)(F)F`: under “293.15 K”, the speed of sound is recorded as 1232 ± 11 m/s and the thermal diffusivity was found to be 6.06e-08 ± 3.2e-09 m2/s.

`CCCCCn1cc[n+](C)c1.O=S(=O)([N-]S(=O)(=O)C(F)(F)F)C(F)(F)F`: under “298.15 K”, the speed of sound stood at 1227 ± 7 m/s and the thermal diffusivity is 5.8e-08 ± 3e-09 m2/s.

With `CCCC[n+]1ccn(C)c1.O=S(=O)([N-]S(=O)(=O)C(F)(F)F)C(F)(F)F`, under “293.15 K”, the speed of sound turned out to be 1227 ± 13 m/s and the thermal diffusivity stood at 6e-08 ± 3e-09 m2/s.

The values are drawn from the NIST ThermoML archive (doi:10.1021/je0600092).
